Experiments:
Test in all cases: Antimicrobial screening, agar dilution
Format in all cases: cell-based
Details in all cases: after 10, 20, 40 and 60 minutes at all dilutions 1:100, 1:200, 1:400, 1:800
Pseudomonas aeruginosa = test system: Pseudomonas aeruginosa
Procedure: (§1) The antibacterial properties of the synthesized compound compound (9-(2-hydroxypyridin-3-yl)-10-(2-phenylethyl)-3,3,6,6-tetramethyl-3,4,6,7,9,10-hexahydroacridine1,8(2H,5H)-dione) were studied by the method of agar dilution. Test solutions of each compound was prepared in concentration of 1% using dimethylformamide as a solvent then they are diluted in physiological solution to obtain the final experimental dilutions 1:100, 1:200, 1:400, 1:800. The effect of these substances are compared with furacillin in a controllable study. The testing microbes used were gram positive bacteria Staphylococcus aureus, gram negative bacteria Pseudomonas aeruginosa and Escherichia coli and Candida albicans fungus. The experiments used for this survey were meat-pentonlu agar (EPA) for cultivation of bacteria and Saburo enviromnent for the fungus. Each experiment used 1 mL of test solution on each plate […]. Two drops of emulsified with microbes feel were added. All experimental samples were taken from the agar after 10, 20, 40, 60 minutes in the environment on the basis of Patrk planted. The bacteria were cultivated at a temperature: of 37° C for 1 day and the mushroom was kept in a thermostat for […] at a temperature of 28° C. Then results were checked.

Staphylococcus aureus = test system: Staphylococcus aureus
Procedure: as §1

Escherichia coli = test system: Escherichia coli
Procedure: as §1

Candida albicans = test system: Candida albicans
Procedure: as §1

Measured: inhibition activity (in words)

CC1(C)CC(=O)C2=C(C1)N(CCc1ccccc1)C1=C(C(=O)CC(C)(C)C1)C2c1cccnc1O [9-(2-hydroxypyridin-3-yl)-10-(2-phenylethyl)-3,3,6,6-tetramethyl-3,4,6,7,9,10-hexahydroacridine1,8(2H,5H)-dione]
highest inhibition activity: Pseudomonas aeruginosa | Staphylococcus aureus | Escherichia coli | Candida albicans

Source: patent publication US11919878B1, “9-(2-hydroxypyridin-3-yl)-10-(2-phenylethyl)-3,3,6,6-tetramethyl-3,4,6,7,9,10-hexahydroacridine1,8(2H,5H)-dione as an antimicrobial compound” (KING FAISAL UNIVERSITY, priority 2023, dated 2024)
